# Experimental data published in patent US20070015733A1, “Aryl Phosphate Derivatives of d4T having Activity Against Resistant HIV Strains” (Parker Hughes Institute, priority 1998, published 2007).
# Tests used:
# [1] = Alkaline chemical hydrolysis rate (NaOH/methanol, HPLC); type: physicochemical; settings: alkali hydrolysis
# Description: All chemicals were purchased from Aldrich (Milwaukee, Wis.), with the exception of d4T which was synthesized in-house. All syntheses were performed under a nitrogen atmosphere. ^1H, ^13C, and ^31P NMR were obtained on a Varian Mercury 300 instrument at ambient temperature in CDCl3. FT-IR spectra were recorded on a Nicolet Protege 460 spectrometer. MALDI-TOF mass spectra were obtained by using a Finnigan MAT 95 system. UV spectra were recorded by using a Beckmann UV-VIS spectrophotometer (Model 3DU 74000) with a cell path length of 1 cm. HPLC purification was achieved by using a reverse-phase Lichrospher column (250×4 mm, Hewlett-Packard, RP-18, Cat # 79925) and an isocratic flow (1 ml/minute) consisting of water (70%) and acetonitrile (30%). The alkaline chemical hydrolysis was conducted at room temperature with sodium hydroxide (1 ml of 0.05N) and 3 ml of methanol solution containing 10 mg of the substrates in a Teflon lined reaction vial. […] The disappearance of the starting material was monitored as a function of time. […]
# Statistical Analysis. The IC50 values were calculated from each set of triplicate wells using nonlinear regression modeling of the exponential form of the linearized equation. […] Hydrolysis rates were determined by fitting single exponential decay equations to the disappearance of the compound in alkali conditions. […]
# [2] = test system: HIV-1 RT-MDR (NRTI-resistant, NNRTI-resistant); experiment: p24 antigen assay, RT-MDR strain; type: cell-based; settings: p24; read-out: IC50 RTMDR
# [3] = Octanol/water partition coefficient, shake flask method; type: physicochemical
# Description: Partition Coefficients. The octanol/water partition coefficient was determined by the shake flask method. The phosphoramidate analogs were added to 2 ml of water and 2 ml of octanol in a glass vial. The mixture was shaken for 4 hours at room temperature. The two phases were carefully separated and filtered through a Millipore filter and analyzed by HPLC. The partition coefficient was calculated using the ratio of the area under the curve for octanol and water respectively.
# [4] = test system: HIV-1 HTLVIIIB; experiment: microbe, parasite or virus in culture; settings: read-out: IC50 HTLVIIIB; PBMNC, p24
# Description: In vitro assays of anti-HIV-1 activity. Normal human peripheral blood mononuclear cells (PBMNC) from HIV-negative donors were cultured 72 hours in RPMI 1640 supplemented with 20% (v/v) heat-inactivated fetal bovine serum (FBS), 3% interleukin-2, 2 mM L-glutamine, 25 mM HEPES, 2 g/L NaHCO3, […], and […] prior to exposure to HIV-1 at a multiplicity of infection (MOI) of 0.1 during a 1 hour adsorption period at 37° C. in a humidified 5% CO2 atmosphere. Subsequently, cells were cultured in 96-well microtiter plates ([…]; 2×10^6 cells/mL) in the presence of various concentrations of d4T phosphoramidates and aliquots of culture supernatants were removed from the wells on the 7th day after infection for p24 antigen assays, as previously described (Uckun et al., 1998, Antimicrobial Agents and Chem., 42(2):383-388). The applied p24 enzyme immunoassay (EIA) was the unmodified kinetic assay commercially available from Coulter Corporation/Immunotech, Inc. (Westbrooke, Me.), which utilizes a murine mAb to HIV core protein coated onto microwell strips to which the antigen present in the test culture supernatant samples binds. Percent viral inhibition was calculated by comparing the p24 values from untreated infected cells (i.e., virus controls).
# The anti-HIV activity of the compounds was examined by evaluating their ability to inhibit HIV replication in peripheral blood mononuclear cells using previously described procedures (Uckun et al., 1998, Antimicrobial Agents and Chem., 42(2):383-388). Percent inhibition of viral replication was calculated by comparing the p24 antigen levels from the test substance-treated infected cells with those from vehicle-treated infected cells.
# Antiviral susceptibility assays. Phenotypic drug susceptibility studies of HIV-1 isolates and strains were performed by measuring the production of the p24 gag protein in peripheral blood mononuclear cells (PBMC) from seronegative healthy volunteers in the presence of increasing concentrations of the anti-HIV agent using the quantitative Coulter HIV-1 p24 antigen ezyme immunoassay (EIA) and HIV-1 p24 Antigen Kinetic Standard (Beckman Coulter), as previously described (Uckun, 1998, Antimicrobial Agents and Chemotherapy 37(4): 835-38). Informed consent was obtained from the blood donors according to DHHS guidelines using consent forms approved by the Institutional Review Board. In brief, PBMC were cultured for 72 h in RPMI 1640 medium (Gibco) supplemented with 20% (vol/vol) heat-inactivated fetal bovine serum, 5% human interleukin-2 (Zeptometrix), 2 mM L-glutamine, 25 mM HEPES, 2 g/L NaHCO3, 100 U/ml penicillin/streptomycin (Gibco), 50 μg/ml gentamicin (Gibco), and 5 μg/ml phytohemagglutinin-P (PHA-P) (Sigma) for 24-72 hours prior to exposure to HIV at a multiplicity of infection of 0.001-0.1 during a 1-h adsorbtion period at 37±1° C. in a humidified 5-7% CO2 atmosphere. Subsequently, cells were cultured in 96-well microtiter plates (100 μl/well; 2×10^6 cells/ml, triplicate wells) in the presence of the anti-HIV agents at 6-7 different concentrations ranging from 0.0001 μM to 100 μM, and 25 μL aliquots of culture supernatants were removed from the wells on day 6 after infection for p24 EIA, as previously described (Uckun, 1998, Antimicrobial Agents and Chemotherapy, 37(4):835-38). Controls included uninfected and untreated cells (background control) and infected but untreated (virus control) cells. The p24 EIA utilizes a murine monoclonal antibody to HIV core protein used to coat microwell strips to which the antigen present in the test culture supernatant samples binds. Percent inhibition of viral replication was calculated by comparing the p24 values from the test substance-treated infected cells with p24 values from untreated infected cells (i.e., virus controls). The IC50 values were determined using the Statview statistics program (SAS Institute, Inc.).
# [5] = test system: HIV-1 A17 (Y181C mutant, NNRTI-resistant); experiment: p24 antigen assay, A17 strain in PBMC; type: cell-based; settings: PBMNC, p24; read-out: IC50 A17
# Source text: (§1) In vitro assays of anti-HIV-1 activity.
# (§2) Viruses. 20 primary clinical isolates with genotypic and/or phenotypic NRTI-resistance (isolated in the laboratory of D. Richman) and 10 clinical isolates with phenotypic stavudine (d4T) resistance (obtained through the AIDS Research and Reference Reagent Program, NIAID) were used in the current study. The HIV-1 strains HTLVIIIB (wildtype RT, NRTI-sensitive, NNRTI-sensitive), A17 (Y181 C mutant, NNRTI-resistant), A17-variant (Y181C+K103N mutant, NNRTI-resistant), and RT-MDR (M41 L, V106N, T215Y; NRTI-resistant, NNRTI-resistant) were also obtained from the AIDS Research and Reference Reagent Program, NIAID.
# (§3) Antiviral susceptibility assays.
# [6] = test system: HIV-1 A17-variant (Y181C+K103N mutant, NNRTI-resistant); experiment: p24 antigen assay, A17-variant strain in PBMC; type: cell-based; settings: PBMNC, p24; read-out: IC50 A17V
# Source text: as §1, §2, §3
Structure (SMILES),Hydrolysis Rate [1],IC50 [2],Partition Coefficient (log P) [3],IC50 [4],IC50 [5],IC50 [6]
"COC(=O)C(C)NP(=O)(OCC1C=CC(n2cc(C)c(=O)[nH]c2=O)O1)Oc1cccc(Br)c1 (centres unmarked) [Compound 9, 5′-[3-Bromophenylmethoxyalaninylphosphate]-2′,3′-didehydro-3′-deoxythymidine]",0.0338 min⁻¹,0.493 ± 0.285 µM,1.12,0.002 ± 0.002 µM,0.042 ± 0.024 µM,–
"COC(=O)C(C)NP(=O)(OCC1C=CC(n2cc(C)c(=O)[nH]c2=O)O1)Oc1ccccc1Cl (centres unmarked) [Compound 13, 5′-[2-Chlorophenylmethoxyalaninylphosphate]-2′,3′-didehydro-3′-deoxythymidine]",0.0370 min⁻¹,0.187 ± 0.108 µM,0.84,0.003 ± 0.001 µM,0.034 ± 0.02 µM,0.015 ± 0.008 µM
